Measured values published in article doi:10.1101/2023.05.09.538545v2, “Engineering dynamic gates in binding pocket of penicillin G acylase to selectively degrade bacterial signaling molecules” (biorxiv, 2024).

Biological target: T1, ecPGA (Escherichia coli penicillin G acylase) (Escherichia coli, UniProt P06875)
T1 construct: gene pac; mature alpha/beta heterodimer cut from one precursor (signal peptide and spacer removed); ecpga gene in pET-26b, E. coli BL21(DE3), purified after Kutzbach and Rauenbusch; His-tagged version made for melting analysis; WT source plasmid pKA18
Assay: HPLC of AHL hydrolysis at […] nm, initial rates
Assay type: biochemical

T1 sequence (P06875 27-235): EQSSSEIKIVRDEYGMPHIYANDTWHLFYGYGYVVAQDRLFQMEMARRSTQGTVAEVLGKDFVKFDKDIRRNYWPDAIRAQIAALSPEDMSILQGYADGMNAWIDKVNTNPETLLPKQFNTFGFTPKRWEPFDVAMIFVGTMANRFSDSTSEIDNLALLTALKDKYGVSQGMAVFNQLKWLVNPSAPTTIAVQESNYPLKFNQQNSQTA
T1 sequence (P06875 290-846): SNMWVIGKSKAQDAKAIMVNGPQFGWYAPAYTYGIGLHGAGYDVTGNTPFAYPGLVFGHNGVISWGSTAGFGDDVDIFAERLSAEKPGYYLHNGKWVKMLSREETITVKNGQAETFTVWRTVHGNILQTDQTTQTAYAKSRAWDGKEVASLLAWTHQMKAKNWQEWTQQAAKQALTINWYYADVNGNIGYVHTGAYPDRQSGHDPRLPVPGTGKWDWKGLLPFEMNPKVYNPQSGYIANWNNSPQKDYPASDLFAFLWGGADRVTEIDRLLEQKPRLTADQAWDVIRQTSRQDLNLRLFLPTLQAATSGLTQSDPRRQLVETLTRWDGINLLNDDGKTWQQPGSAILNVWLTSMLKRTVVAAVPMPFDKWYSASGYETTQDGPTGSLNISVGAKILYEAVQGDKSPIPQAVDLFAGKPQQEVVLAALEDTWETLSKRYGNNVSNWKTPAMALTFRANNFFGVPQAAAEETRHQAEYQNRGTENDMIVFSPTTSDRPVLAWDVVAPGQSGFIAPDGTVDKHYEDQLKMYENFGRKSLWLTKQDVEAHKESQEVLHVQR

CCCCCCCC(=O)N[C@H]1CCOC1=O [C08, N-octanoyl-L-homoserine lactone]
Km: 700 ± 40 µM
